From patent publication US11312721B2 (priority 2015, dated 2022)

Tests used:
[1] = molecular target: T1, GABAA receptors (α5β2γ2) (Homo sapiens, UniProt P18507+P31644); test: Positive allosteric modulator activity: potentiation of EC20 GABA current in oocytes; type: cell-based; conditions: read-out: GABA α5 functional potentiation
T1 construct: expressed in transfected cells
Procedure: On day 1, 1 ng/32 nL of GABAA α5β2γ2 cDNA was injected into one oocyte. Test starts on day 2. The cDNA injected to the oocytes was a mix of alpha, beta and gamma, their ratio is 1:1:10 (by weight) and the total weight of the mixed 3 subunits to be injected in one oocyte was 1 ng in 32 nl volume. The injected oocytes can also be tested on day 3. In such case, the cDNA amount injected to the oocytes should be reduced by 20%.
1). 8 oocytes were placed in 8 chambers of OpusXpress and superfused with Modified Barth's Saline (MBS) at 3 mL/min. Glass electrodes back-filled with 3M KCl (0.5-3 megaohms) were used.
1). Repeat the above steps 1), 2) and 3) in the control test.
2). […] Divide Itest by IGABA to obtain potentiation (%).
3). Discard all tested oocytes, new oocytes were used and the above steps 1) and 2) were repeated to test second concentration of the same compound. Each oocyte was used for only one concentration test for a single test compound. The steps were repeated for other test compounds.

[2] = molecular target: T2, α5β3γ2 GABAA receptors (Ltk cells) (Homo sapiens, UniProt P18507+P31644); test: Binding activity on GABAAR: inhibition of [3H]Ro15-1788 binding
T2 construct: membranes
Procedure: Tissue culture and Membrane Preparation: The binding was performed on Ltk cells stably expressing GABAA receptors: α1β1γ2, α2β3γ2, α3β3γ2 and α5β3γ2 (provided by Merck Co., NJ, USA). Cells were seeded in 100 mm culture plates in DMEM/F12 medium containing 10% serum and antibiotics in 5% CO2 and allowed to grow for 1-2 days. GABAAR expression was then induced by dexamethasone as follows: 0.5 μM for 1 day for α5 containing and 2 μM for 3 days for α1, α2 and α3 containing GABAARs. After induction, cells were collected by scraping into Dulbecco's Phosphate buffered saline (DPBS, pH 7.4, Invitrogen, Carlsbad, Calif., USA) and centrifuged at 150×g for 10 min. The pellet was washed twice by re-suspension and centrifugation. The cell pellets from at least 5 different preps were combined, suspended in the binding assay buffer (50 mM KH2PO4; 1 mM EDTA; 0.2 M KCl, pH 7.4) and membranes prepared by sonication (3-5 times, 30 sec) using Branson Sonifier 150 (G. Heinmann, Germany). Protein content was determined using BCA assay (Bio-Rad Labs, Reinach, Switzerland) with Bovine Serum Albumin (Sigma Aldrich, St. Louis, Mo., USA) as the standard. Aliquots were prepared and stored at −20° C. for further use in binding assays.
Ligand Binding: Saturation binding curves were obtained by incubating membranes with increasing concentrations (0.01-8 nM) of [^3H]Ro15-1788 (Flumazepil, 75-85 Ci/mmol, PerkinElmer, MA, USA), with nonspecific binding measured in the presence of 10 μM diazepam.
All binding assays were performed for 1 h at 4° C. in assay buffer. The total assay volume was 0.5 ml containing 0.2 mg/ml protein for α5 and 0.4 mg/ml for α1, α2, and α3 containing GABAAR membranes. Incubations were terminated by filtration through GF/B filters using a 24-Cell Harvestor (Brandel, Gaithersburg, Md., USA) followed by 3 washes with ice-cold assay buffer. Filters were transferred to scintillation vials, 5 ml scintillation liquid added, vortex-mixed and kept in dark. Next day, radioactivity was obtained using a scintillation counter (Beckman Coulter, Brea, Calif., USA). All assays were performed in triplicate.
Data Analyses: Saturation and inhibition curves were obtained using GraphPad Prism software (GraphPad Software, Inc., CA, USA).

T1 sequence (P31644 32-462): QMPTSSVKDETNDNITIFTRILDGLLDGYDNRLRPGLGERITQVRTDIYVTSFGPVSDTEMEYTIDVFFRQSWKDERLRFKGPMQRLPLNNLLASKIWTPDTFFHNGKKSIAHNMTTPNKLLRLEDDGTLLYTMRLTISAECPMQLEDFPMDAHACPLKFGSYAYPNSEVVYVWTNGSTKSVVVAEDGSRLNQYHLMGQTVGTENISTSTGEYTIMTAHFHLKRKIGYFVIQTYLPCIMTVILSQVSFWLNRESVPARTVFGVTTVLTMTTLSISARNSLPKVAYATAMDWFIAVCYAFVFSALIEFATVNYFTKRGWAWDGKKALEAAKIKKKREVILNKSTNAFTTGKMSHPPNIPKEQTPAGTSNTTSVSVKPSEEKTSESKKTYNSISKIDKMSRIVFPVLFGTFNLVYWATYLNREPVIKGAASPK
T1 sequence (P47870 25-512 partner limits assumed): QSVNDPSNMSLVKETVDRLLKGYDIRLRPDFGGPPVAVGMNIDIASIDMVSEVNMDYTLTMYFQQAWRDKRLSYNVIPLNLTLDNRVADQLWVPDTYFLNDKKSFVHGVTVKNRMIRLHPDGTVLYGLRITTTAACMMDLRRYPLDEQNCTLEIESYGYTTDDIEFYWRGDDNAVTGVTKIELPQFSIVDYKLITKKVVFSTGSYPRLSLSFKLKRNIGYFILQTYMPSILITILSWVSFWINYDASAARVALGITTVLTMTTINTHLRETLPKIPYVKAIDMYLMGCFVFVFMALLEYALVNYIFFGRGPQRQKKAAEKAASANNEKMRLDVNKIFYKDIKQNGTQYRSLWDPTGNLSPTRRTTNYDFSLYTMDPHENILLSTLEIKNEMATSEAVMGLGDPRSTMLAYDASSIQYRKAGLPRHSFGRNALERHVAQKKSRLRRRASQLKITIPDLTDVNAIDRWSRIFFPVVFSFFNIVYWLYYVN
T1 sequence (P18507 40-475): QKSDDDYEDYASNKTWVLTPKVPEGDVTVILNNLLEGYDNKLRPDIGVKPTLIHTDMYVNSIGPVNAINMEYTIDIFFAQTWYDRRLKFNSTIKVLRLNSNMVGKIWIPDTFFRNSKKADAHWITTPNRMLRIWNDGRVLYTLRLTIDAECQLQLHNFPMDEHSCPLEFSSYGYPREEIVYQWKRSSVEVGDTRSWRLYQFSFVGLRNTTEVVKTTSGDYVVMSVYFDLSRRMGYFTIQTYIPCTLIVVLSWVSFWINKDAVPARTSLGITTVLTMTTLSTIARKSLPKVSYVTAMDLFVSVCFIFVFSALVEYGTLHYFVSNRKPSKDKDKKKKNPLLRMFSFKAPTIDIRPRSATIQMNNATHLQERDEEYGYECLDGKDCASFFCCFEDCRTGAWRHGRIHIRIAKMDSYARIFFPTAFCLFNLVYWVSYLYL
T2 sequence (P31644 32-462): as the sequence (P31644 32-462) above
T2 sequence (P28472 26-473 partner): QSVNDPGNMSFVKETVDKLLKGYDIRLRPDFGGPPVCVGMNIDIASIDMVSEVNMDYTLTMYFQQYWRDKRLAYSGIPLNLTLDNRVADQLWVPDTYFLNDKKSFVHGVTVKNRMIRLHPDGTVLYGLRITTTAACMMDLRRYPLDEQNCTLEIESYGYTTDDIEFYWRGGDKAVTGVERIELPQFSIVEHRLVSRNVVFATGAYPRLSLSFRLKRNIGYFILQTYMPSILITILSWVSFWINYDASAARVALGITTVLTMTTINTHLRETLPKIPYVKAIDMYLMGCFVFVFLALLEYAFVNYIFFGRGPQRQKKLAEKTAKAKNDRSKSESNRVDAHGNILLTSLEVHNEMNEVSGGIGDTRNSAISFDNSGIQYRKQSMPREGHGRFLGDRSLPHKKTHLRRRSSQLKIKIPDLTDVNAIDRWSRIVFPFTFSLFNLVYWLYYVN
T2 sequence (P18507 40-475): as the sequence (P18507 40-475) above

| SMILES | activation at 0.1 µM [1] [%] | Ki [2] [nM] |
| --- | --- | --- |
| Cc1nnn2c1Cc1c(-c3nc(C(C)C)no3)ncn1-c1ccccc1-2 [Compound 132] | 20 to 49 | – |
| CCOC(=O)c1ncn2c1Cn1c(COc3ccccc3)nnc1-c1cc(F)ccc1-2 [Compound 137] | 20 to 49 | – |
| Cc1nc(-c2ncn3c2Cc2c(C)nnn2-c2cc(F)ccc2-3)no1 [Compound 145] | > 50 | – |
| CC(C)c1nc(-c2ncn3c2Cn2c(COc4ccccc4)nnc2-c2cc(F)ccc2-3)no1 [Compound 147] | 20 to 49 | – |
| Cc1nc(-c2ncn3c2Cn2c(COc4ccccc4)nnc2-c2cc(F)ccc2-3)no1 [Compound 148] | 20 to 49 | – |
| Cc1nnn2c1Cc1c(-c3noc(C(C)C)n3)ncn1-c1ccc(F)cc1-2 [Compound 149] | > 50 | – |
| Cc1nnn2c1Cc1c(C(=O)OC(C)C)ncn1-c1ccccc1-2 [Compound 153] | 20 to 49 | – |
| CCc1nc(-c2ncn3c2Cc2c(C)nnn2-c2cc(F)ccc2-3)no1 [Compound 155] | 20 to 49 | – |
| CCc1nc(-c2ncn3c2Cn2c(COc4ccccc4)nnc2-c2cc(F)ccc2-3)no1 [Compound 158] | 20 to 49 | – |
| Cc1nnn2c1Cc1c(-c3noc(C(C)(C)C)n3)ncn1-c1ccc(F)cc1-2 [Compound 160] | > 50 | – |
| COc1ccc2c(c1)-c1nnc(COc3ccccc3)n1Cc1c(-c3noc(C)n3)ncn1-2 [Compound 162] | 20 to 49 | – |
| COc1ccc2c(c1)-c1nnc(COc3ccc(F)cc3)n1Cc1c(-c3noc(C)n3)ncn1-2 [Compound 163] | 20 to 49 | – |
| COc1ccc2c(c1)-c1nnc(COc3ccccc3)n1Cc1c(-c3noc(C(C)C)n3)ncn1-2 [Compound 171] | > 50 | – |
| COc1ccc2c(c1)-c1nnc(COc3ccc(F)cc3)n1Cc1c(-c3noc(C(C)C)n3)ncn1-2 [Compound 172] | > 50 | – |
| CCOCc1nnc2n1Cc1c(-c3noc(C(C)C)n3)ncn1-c1ccc(OC)cc1-2 [Compound 173] | > 50 | – |
| COc1ccc2c(c1)-c1nnc(COc3ccccc3F)n1Cc1c(-c3noc(C(C)C)n3)ncn1-2 [Compound 174] | > 50 | – |
| COc1ccc2c(c1)-c1nnc(COc3ccccc3Cl)n1Cc1c(-c3noc(C(C)C)n3)ncn1-2 [Compound 175] | 20 to 49 | – |
| COc1ccc2c(c1)-c1nnc(COc3cccnc3)n1Cc1c(-c3noc(C(C)C)n3)ncn1-2 [Compound 176] | > 50 | – |
| COc1ccc2c(c1)-c1nnc(COc3cccc4ccccc34)n1Cc1c(-c3noc(C(C)C)n3)ncn1-2 [Compound 177] | > 50 | – |
| COc1ccc2c(c1)-c1nnc(COC3CCCC3)n1Cc1c(-c3noc(C(C)C)n3)ncn1-2 [Compound 178] | > 50 | – |
| COc1ccc2c(c1)-c1nnc(COc3cccc(F)c3)n1Cc1c(-c3noc(C(C)C)n3)ncn1-2 [Compound 179] | > 50 | – |
| COc1ccc2c(c1)-n1nnc(COc3ccc(F)cc3)c1Cc1c(-c3noc(C)n3)ncn1-2 [Compound 180] | 20 to 49 | < 99 |
| COc1ccc2c(c1)-n1nnc(COc3ccccc3F)c1Cc1c(-c3noc(C)n3)ncn1-2 [Compound 181] | 20 to 49 | < 99 |
| COc1ccc2c(c1)-n1nnc(COc3ccccc3)c1Cc1c(-c3noc(C)n3)ncn1-2 [Compound 182] | 20 to 49 | < 99 |
| COc1ccc2c(c1)-c1nnc(COCc3cccc(F)c3)n1Cc1c(-c3noc(C(C)C)n3)ncn1-2 [Compound 183] | 20 to 49 | < 99 |
| COc1ccc2c(c1)-c1nnc(COCc3ccccc3F)n1Cc1c(-c3noc(C(C)C)n3)ncn1-2 [Compound 184] | 20 to 49 | < 99 |
| CC(C)c1nc(-c2ncn3c2Cn2c(COc4cccnc4)nnc2-c2cc(F)ccc2-3)no1 [Compound 185] | > 50 | < 99 |

| SMILES | activation at 0.1 µM [1] [%] | Ki [2] [nM] |
| --- | --- | --- |
| COCc1nnc2n1Cc1c(-c3noc(C(C)C)n3)ncn1-c1ccc(F)cc1-2 [Compound 186] | > 50 | < 99 |
| CCOCc1nnc2n1Cc1c(-c3noc(C(C)C)n3)ncn1-c1ccc(F)cc1-2 [Compound 187] | 20 to 49 | < 99 |
| CC(C)c1nc(-c2ncn3c2Cn2c(COc4cccc(F)c4)nnc2-c2cc(F)ccc2-3)no1 [Compound 188] | 20 to 49 | < 99 |
| CC(C)c1nc(-c2ncn3c2Cn2c(COc4ccc(F)cc4)nnc2-c2cc(F)ccc2-3)no1 [Compound 189] | 20 to 49 | < 99 |
| COc1ccc2c(c1)-c1nnc(COc3ccc(F)cc3)n1Cc1c(C#N)ncn1-2 [Compound 191] | 20 to 49 | – |
| CCc1nc(-c2ncn3c2Cc2c(Cc4ccccc4)nnn2-c2cc(OC)ccc2-3)no1 [Compound 194] | > 50 | < 99 |
| CCc1nc(-c2ncn3c2Cc2c(Cc4ccc(F)cc4)nnn2-c2cc(OC)ccc2-3)no1 [Compound 195] | 20 to 49 | < 99 |
| COc1ccc2c(c1)-c1nnc(COc3cccc(F)c3)n1Cc1c(C#N)ncn1-2 [Compound 196] | 20 to 49 | < 99 |
| COCc1nnc2n1Cc1c(-c3nc(C)no3)ncn1-c1ccc(Cl)cc1-2 [Compound 198] | 20 to 49 | < 99 |
| FC(F)=Cc1ncn2c1Cn1c(COc3ccccc3)nnc1-c1cc(Cl)ccc1-2 [Compound 199] | 20 to 49 | < 99 |
| Clc1ccc2c(c1)-c1nnc(COc3ccccc3)n1Cc1c(Br)ncn1-2 [Compound 202] | 20 to 49 | < 99 |
| COc1ccc2c(c1)-c1nnc(COCc3cccnc3)n1Cc1c(-c3noc(C(C)C)n3)ncn1-2 [Compound 203] | 20 to 49 | < 99 |
| C#Cc1ncn2c1Cn1c(COc3ccccc3)nnc1-c1cc(Cl)ccc1-2 [Compound 205] | 20 to 49 | < 99 |
| COc1ccc2c(c1)-n1nnc(Cc3ccccc3)c1Cc1c(C#N)ncn1-2 [Compound 207] | 20 to 49 | < 99 |
| COc1ccc2c(c1)-n1nnc(Cc3cccnc3)c1Cc1c(C#N)ncn1-2 [Compound 210] | 20 to 49 | < 99 |
| COc1ccc2c(c1)-n1nnc(Cc3ccccc3)c1Cc1c(Br)ncn1-2 [Compound 212] | 20 to 49 | – |
| COc1ccc2c(c1)-n1nnc(Cc3ccc(F)cc3)c1Cc1c(Br)ncn1-2 [Compound 213] | 20 to 49 | – |
| COc1ccc2c(c1)-n1nnc(COc3ccc(F)cc3)c1Cc1c(C#N)ncn1-2 [Compound 222] | 20 to 49 | < 99 |
| COc1ccc2c(c1)-n1nnc(COc3ccccc3)c1Cc1c(C#N)ncn1-2 [Compound 224] | 20 to 49 | < 99 |
| COc1ccc2c(c1)-n1nnc(COc3cccc(Br)c3)c1Cc1c(C#N)ncn1-2 [Compound 225] | 20 to 49 | < 99 |
| N#Cc1ncn2c1Cc1c(COc3ccccc3)nnn1-c1cc(Cl)ccc1-2 [Compound 226] | 20 to 49 | < 99 |
| COCc1nnc2n1Cc1c(C3=NCCO3)ncn1-c1ccc(Cl)cc1-2 [Compound 238] | 20 to 49 | < 99 |
| COCc1nnc2n1Cc1c(C3=NC(C)CO3)ncn1-c1ccc(Cl)cc1-2 (stereo not shown) [Compound 243] | 20 to 49 | < 99 |
| COCc1nnc2n1Cc1c(-c3ncco3)ncn1-c1ccc(Cl)cc1-2 [Compound 249] | 20 to 49 | < 99 |
| CCOCc1nnc2n1Cc1c(-c3nc(C(C)C)no3)ncn1-c1ccc(Cl)cc1-2 [Compound 254] | 20 to 49 | < 99 |
| CCOCc1nnc2n1Cc1c(-c3nc(C)no3)ncn1-c1ccc(Cl)cc1-2 [Compound 255] | 20 to 49 | < 99 |
